Entries after “also recorded” stand apart in the source; their conditions may differ. *1 amine or outer side, *2 acyl side, *3 side chain or, on linkers, in order; H or OH if unused. Where a SMILES comes first, the peptide text is derived from it. [ ]: non-standard residue; d: D form. Leu(5,5,5,5',5',5'-F6) = N[C@@H](CC(C(F)(F)F)C(F)(F)F)C(=O)O; X1 = C[C@@H](CC(F)(F)F)[C@H](N[*:1])C(=O)[*:2]; 2Abz = Nc1ccccc1C(=O)O
Legend:
[1] = target: elastase (EC 3.4.21.36) (Sus scrofa, UniProt P00772)
Method: (§1) The course of proteolytic digestion was characterized by an analytical HPLC-assay with fluorescence detection. For quantification of substrate degradation, integration of the corresponding HPLC peak was conducted. Cleavage products were identified by ESI–ToF mass spectrometry (see Supporting Information File 1, Tables S4–S7).
(§2) All peptides employed in the degradation studies were used as the TFA salts obtained after lyophilization. Stock solutions of α-chymotrypsin (from bovine pancreas, EC 3.4.21.1, ≥40.0 units/mg of protein, Sigma Aldrich, St. Louis, MO, USA), and pepsin (from porcine stomach mucosa, EC 3.4.23.1, ≥250 units/mg of protein, Sigma Aldrich, St. Louis, MO, USA) were prepared at concentrations of 1 mg/mL in phosphate buffer (10 mM, pH 7.4), or in acetate buffer (10 mM, pH 4.0), respectively. For proteinase K (from tritirachium album, EC 3.4.21.64, ≥30 units/mg of protein, Sigma Aldrich, St. Louis, MO, USA) and elastase (from porcine pancreas, EC 3.4.21.36, 6.2 units/mg of protein, Sigma Aldrich, St. Louis, MO, USA) stock solutions were prepared also at concentrations of 1 mg/mL in tris/HCl (50 mM) + CaCl2 (10 mM) buffer (pH 7.5), or in tris/HCl buffer (100 mM, pH 8.4), respectively. Peptides (0.002 mmol) were prepared as stocks in DMSO (100 µL) and incubated with the respective enzyme at 30 °C (for α-chymotrypsin and pepsin) or 37 °C (for proteinase K and elastase) with shaking at 300 rpm in a thermomixer over a period of 24 h. The reaction mixture consisted of DMSO (15 µL), corresponding buffer (25 µL), peptide solution (5 µL) and the corresponding enzyme solution (5 µL). […] Aliquots of 5 µL were taken at fixed time points (0, 15, 30, 60, 90, 120 min as well as 3 h and 24 h) and either quenched with ACN containing 0.1% (v/v) TFA (95 µL), in the case of α-chymotrypsin, proteinase K and elastase, or 2% aqueous ammonia (95 µL), in the case of pepsin. All samples were subjected to analytical HPLC on a LaChrom-ELITE-HPLC-System equipped with a fluorescence detector (VWR International Hitachi, Darmstadt, Germany). A monolithic reversed-phase C8 Chromolith® Performance HPLC column (100 × 4.6 mm, Merck KGaA, Darmstadt, Germany) was used to resolve and quantify the products of digestion. The used system and gradients are described in detail in Supporting Information File 1. Detection based on the Abz label was carried out using a fluorescence detector with λex = 320 nm and λem = 420 nm. In all cases, the peaks corresponding to the starting materials (full-length peptides) or the N-terminal fragments (products) were integrated and used to determine the velocity of the reaction (see Supporting Information File 1). […] Each fragment cleaved from the full-length peptide was identified by ESI–ToF mass analysis on an Agilent 6220 ESI–ToF–MS spectrometer (Agilent Technologies, Santa Clara, CA, USA, see Supporting Information File 1). All experiments were performed in triplicate.
(§3) 2130) with solvent degasser, an autosampler (L-2200) with a 100 µL sample loop, a diode array flow detector (L-2455), a fluorescence detector (L-2485) and a high pressure gradient mixer. As eluents water and ACN, both containing 0.1% (v/v) TFA were used, and a flow rate of 3 mL/min was applied. The used linear gradients are […]
(§4) For the non-fluorinated peptides method A was used to follow the digestion process, and for the fluorinated peptides method B was applied. For […]
(§5) The obtained data were analyzed with EZChrom Elite software
(§6) (version 3.3.2, Agilent Technologies, Santa Clara, CA, USA).

[2] = target: pepsin (EC 3.4.23.1) (Sus scrofa, UniProt P00791); assay: in vitro; settings: for Percentage of substrate remaining after incubation for 24 h: pepsin (porcine stomach mucosa), 10 mM acetate buffer pH 4.0 with DMSO, 30 °C, FL-RP-HPLC peak integration (Abz, λex 320/λem 420 nm), average of three independent measurements
Method: as §1, §2, §3, §4, §5, §6

[3] = target: T1, proteinase K (EC 3.4.21.64) (Parengyodontium album, UniProt P06873); assay: Protease digestion assay with proteinase K (FL-RP-HPLC); assay type: in vitro ADME, tritirachium album; settings: for Gain in stability upon fluorination compared to the non-fluorinated analogue, 120 min: after 120 min
T1 construct: purchased Sigma Aldrich; host or cells: Tritirachium album
Method: (§7) The FA peptide was used as a reference. […] All experiments were performed in triplicate.
(§8) The used linear gradients are
(§9) chromatograms where an insufficient baseline separation was observed,
(§10) (proteinase K)]. The obtained data were analyzed with EZChrom Elite software
(§11) Method Time [min] Water + 0.1% (v/v) TFA [%] ACN + 0.1% (v/v) TFA [%]

[4] = in vitro; settings: pig, pepsin from porcine stomach mucosa, pH 4
Method: as §1, §2, §3, §4, §5, §6

[5] = target: T2, α-chymotrypsin (EC 3.4.21.1) (Bos taurus, UniProt P00766); assay: Protease digestion assay with α-chymotrypsin (FL-RP-HPLC); assay type: in vitro ADME, bovine; settings: for Percentage of substrate remaining after incubation for 24 h: α-chymotrypsin (bovine pancreas), 10 mM phosphate buffer pH 7.4 with DMSO, 30 °C, FL-RP-HPLC peak integration (Abz, λex 320/λem 420 nm), average of three independent measurements; for Proteolytic stability compared to control peptide FA after 120 min / Gain in proteolytic stability upon fluorination compared to the non-fluorinated (Leu or Ile) analogue / Proteolytic stability compared to control peptide FA after 24 h: α-chymotrypsin, 10 mM phosphate buffer pH 7.4, 30 °C, FL-RP-HPLC; for Proteolytic stability compared to control peptide FA after 120 min / Proteolytic stability compared to control peptide FA after 24 h: three independent measurements; for Gain in proteolytic stability upon fluorination compared to the non-fluorinated (Leu or Ile) analogue: after 24 h
T2 construct: purchased Sigma Aldrich; host or cells: bovine pancreas
Method: as §7, §8, §9, §10, §11

[6] = elastase (porcine pancreas), 100 mM Tris/HCl buffer pH 8.4 with DMSO, 37 °C, FL-RP-HPLC, mean of three independent measurements
[7] = pepsin, 10 mM acetate buffer pH 4.0, 30 °C, 120 min, FL-RP-HPLC
[8] = proteinase K, 50 mM Tris/HCl + 10 mM CaCl2 pH 7.5, 37 °C
[9] = proteinase K, 50 mM Tris/HCl + 10 mM CaCl2 pH 7.5, 37 °C, 120 min, FL-RP-HPLC
[10] = pepsin, 10 mM acetate buffer pH 4.0, 30 °C, after 24 h

T1 sequence (P06873 106-384): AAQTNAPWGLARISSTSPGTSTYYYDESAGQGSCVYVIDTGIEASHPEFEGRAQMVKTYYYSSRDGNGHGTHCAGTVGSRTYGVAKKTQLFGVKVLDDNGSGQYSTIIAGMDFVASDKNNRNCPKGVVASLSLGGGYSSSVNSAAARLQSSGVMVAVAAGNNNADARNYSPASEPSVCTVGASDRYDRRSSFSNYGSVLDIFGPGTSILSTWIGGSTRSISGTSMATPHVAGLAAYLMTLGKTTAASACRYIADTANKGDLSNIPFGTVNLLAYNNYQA
Sequence of pepsin (EC 3.4.23.1) (P00791 60-385): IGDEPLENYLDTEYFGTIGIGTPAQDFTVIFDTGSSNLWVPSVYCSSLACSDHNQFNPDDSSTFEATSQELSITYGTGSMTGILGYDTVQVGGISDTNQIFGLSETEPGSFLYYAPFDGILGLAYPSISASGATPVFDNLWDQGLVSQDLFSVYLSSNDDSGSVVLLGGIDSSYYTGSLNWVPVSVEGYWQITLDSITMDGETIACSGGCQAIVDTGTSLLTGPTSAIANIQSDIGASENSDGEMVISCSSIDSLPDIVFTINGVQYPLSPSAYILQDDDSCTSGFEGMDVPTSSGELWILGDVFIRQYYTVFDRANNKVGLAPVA
Sequence of elastase (EC 3.4.21.36) (P00772 27-266): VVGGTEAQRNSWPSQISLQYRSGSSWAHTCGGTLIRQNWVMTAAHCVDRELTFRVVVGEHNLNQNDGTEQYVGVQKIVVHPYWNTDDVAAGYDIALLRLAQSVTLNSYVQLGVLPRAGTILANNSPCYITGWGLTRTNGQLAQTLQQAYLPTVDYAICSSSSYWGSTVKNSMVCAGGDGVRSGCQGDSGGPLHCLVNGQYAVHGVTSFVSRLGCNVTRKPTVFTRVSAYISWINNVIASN

## Abz-KAAFATfIleAAK [P2’-TfIleFA, FA variant with 5,5,5-trifluoroisoleucine at position P2’]
[1]; [6]
  Degradation state after incubation for 120 min: somewhat digested
[2]; 24 h
  Percentage of substrate remaining after incubation for 24 h: completely digested
[2]; [7]
  Proteolytic stability compared to control peptide FA after 120 min: degraded faster than the control FA
[3]; [8]
  Gain in stability upon fluorination compared to the non-fluorinated analogue, 120 min: around 12%

## C[C@H](NC(=O)[C@H](C)NC(=O)[C@H](CC(C(F)(F)F)C(F)(F)F)NC(=O)[C@H](C)NC(=O)[C@H](Cc1ccccc1)NC(=O)[C@H](C)NC(=O)[C@H](C)NC(=O)[C@H](CCCCN)NC(=O)c1ccccc1N)C(=O)N[C@@H](CCCCN)C(=O)O [P2’-HfLeuFA] (H-[2Abz]KAAFA[Leu(5,5,5,5',5',5'-F6)]AAK-OH)
[2]; pepsin, 10 mM acetate buffer pH 4.0, 30 °C, 120 min, FL-RP-HPLC, enzyme concentration optimized to about 40% hydrolysis of FA
  Peptide digested (hydrolysis) after 120 min: up to 5%
[4]
  remaining at 24 h, 2 mM: ~76%
[3]; [9]
  Degradation state after incubation for 120 min: almost completely degraded
[5]
  Percentage of substrate remaining after incubation for 24 h: up to 44%
  Proteolytic stability compared to control peptide FA after 120 min: more stable against digestion

## C[C@H](NC(=O)[C@H](C)NC(=O)[C@H](C)NC(=O)[C@H](Cc1ccccc1)NC(=O)[C@H](CC(C(F)(F)F)C(F)(F)F)NC(=O)[C@H](C)NC(=O)[C@H](CCCCN)NC(=O)c1ccccc1N)C(=O)N[C@@H](C)C(=O)N[C@@H](CCCCN)C(=O)O [P2-HfLeuFA] (H-[2Abz]KA[Leu(5,5,5,5',5',5'-F6)]FAAAAK-OH)
other
  gain in stability vs non-fluorinated analogue after 24 h: 19%
[5]
  Percentage of substrate remaining after incubation for 24 h: not digested at all
  Gain in proteolytic stability upon fluorination compared to the non-fluorinated (Leu or Ile) analogue: ~100%

## C[C@H](NC(=O)[C@H](C)NC(=O)[C@H](CC(C(F)(F)F)C(F)(F)F)NC(=O)[C@H](Cc1ccccc1)NC(=O)[C@H](C)NC(=O)[C@H](C)NC(=O)[C@H](CCCCN)NC(=O)c1ccccc1N)C(=O)N[C@@H](C)C(=O)N[C@@H](CCCCN)C(=O)O [P1’-HfLeuFA] (H-[2Abz]KAAF[Leu(5,5,5,5',5',5'-F6)]AAAK-OH)
[1]; elastase, 100 mM Tris/HCl buffer pH 8.4, 37 °C, 24 h, FL-RP-HPLC
  Proteolytic stability compared to control peptide FA after 24 h: more stable than the control peptide FA
[1]; elastase, 100 mM Tris/HCl buffer pH 8.4, 37 °C, after 24 h
  Gain in stability upon fluorination compared to the non-fluorinated (Leu or Ile) analogue, 24 h: 85%
[2]; [7]
  Proteolytic stability compared to control peptide FA after 120 min: same persistence
[2]; pepsin, 10 mM acetate buffer pH 4.0, 30 °C, 24 h, FL-RP-HPLC
  Proteolytic stability compared to control peptide FA after 24 h: somewhat more stable than the control FA
[2]; pepsin, 10 mM acetate buffer pH 4.0, 30 °C, after 120 min
  Stabilization upon fluorination compared to the non-fluorinated analogue, 120 min: about 20%
[2]; [10]
  Destabilization compared to the hydrocarbon analogue, 24 h: 17%
[5]
  Gain in proteolytic stability upon fluorination compared to the non-fluorinated (Leu or Ile) analogue: better substrate than the non-fluorinated Leu peptide

## C[C@H](NC(=O)[C@H](C)NC(=O)[C@H](C)NC(=O)[C@H](Cc1ccccc1)NC(=O)[C@@H](NC(=O)[C@H](C)NC(=O)[C@H](CCCCN)NC(=O)c1ccccc1N)[C@@H](C)CC(F)(F)F)C(=O)N[C@@H](C)C(=O)N[C@@H](CCCCN)C(=O)O [P2-TfIleFA] (H-[2Abz]KA[X1]FAAAAK-OH)
other
  gain in stability vs non-fluorinated analogue after 24 h: 35%
[2]; [10]
  Gain in proteolytic stability upon fluorination compared to the non-fluorinated analogue, 24 h: 100%
[4]
  remaining at 24 h, 2 mM: 100%
[3]; proteinase K (tritirachium album), 50 mM Tris/HCl buffer containing 10 mM CaCl2 pH 7.5 with DMSO, 37 °C, 24 h, FL-RP-HPLC peak integration (Abz fluorescence), mean of three independent measurements
  Percentage of substrate remaining after incubation for 24 h: still left; also recorded: remarkably stable
[3]; [8]
  Gain in stability upon fluorination compared to the non-fluorinated analogue, 120 min: 60%
[5]
  Percentage of substrate remaining after incubation for 24 h: not digested at all
  Gain in proteolytic stability upon fluorination compared to the non-fluorinated (Leu or Ile) analogue: 50%

## CC(C)C[C@H](NC(=O)[C@H](C)NC(=O)[C@H](Cc1ccccc1)NC(=O)[C@H](C)NC(=O)[C@H](C)NC(=O)[C@H](CCCCN)NC(=O)c1ccccc1N)C(=O)N[C@@H](C)C(=O)N[C@@H](C)C(=O)N[C@@H](CCCCN)C(=O)O [P2’-LeuFA] (H-[2Abz]KAAFALAAK-OH)
[1]; [6]
  Degradation state after incubation for 120 min: somewhat digested
[2]; [7]
  Proteolytic stability compared to control peptide FA after 120 min: degraded faster than the control FA
[5]
  Proteolytic stability compared to control peptide FA after 120 min: more stable against digestion
  Proteolytic stability compared to control peptide FA after 24 h: accelerated proteolysis compared to FA

## CC[C@H](C)[C@H](NC(=O)[C@H](C)NC(=O)[C@H](Cc1ccccc1)NC(=O)[C@H](C)NC(=O)[C@H](C)NC(=O)[C@H](CCCCN)NC(=O)c1ccccc1N)C(=O)N[C@@H](C)C(=O)N[C@@H](C)C(=O)N[C@@H](CCCCN)C(=O)O [P2’-IleFA] (H-[2Abz]KAAFAIAAK-OH)
[1]; [6]
  Degradation state after incubation for 120 min: somewhat digested
[1]; elastase (porcine pancreas), 100 mM Tris/HCl buffer pH 8.4 with DMSO, 37 °C, 24 h, FL-RP-HPLC peak integration (Abz fluorescence), mean of three independent measurements
  Percentage of substrate remaining after incubation for 24 h: almost complete proteolysis
[2]; 24 h
  Percentage of substrate remaining after incubation for 24 h: completely digested
[2]; [7]
  Proteolytic stability compared to control peptide FA after 120 min: degraded faster than the control FA
[3]; [9]
  Proteolytic stability compared to control peptide FA after 120 min: as stable as FA
[5]
  Proteolytic stability compared to control peptide FA after 120 min: more stable against digestion
  Proteolytic stability compared to control peptide FA after 24 h: accelerated proteolysis compared to FA
